Literature values as cited in patent publication US11833118B2 (priority 2016, dated 2023).

What was measured:
[1] = not given; remark: listed apart in the source

SMILES	crossing of the blood-brain barrier relative to Δ9THC (in vivo)	psychoactivity relative to Δ9THC (man)	Vapor Pressure at 25° C. [1] [mm Hg]	Vapor Pressure at 53.8° C. [1] [mm Hg]
CCCCCc1cc(O)c2c(c1)OC(C)(C)[C@@H]1CCC(CO)=C[C@@H]21 [11-hydroxy-Δ9THC]	more rapidly crosses the blood-brain barrier	more psychoactive than Δ9THC	–	–
O [Water]	–	–	23.8	111.4
C=C(C)[C@H]1CC=C(C)CC1 [d-Limonene]	–	–	2.0	10
